Test results published in patent US7084253B2, “Protease-activated receptor PAR4 (ZCHEMR2)” (ZymoGenetics, Inc., priority 1998, dated 2006).
Substitutions are numbered along the chain they refer to. Entries after “also recorded” stand apart in the source; their conditions may differ. Like-named read-outs stand apart in the source and are kept apart here. Blank lines part the entries; values can stand above or below the molecule they belong to. No end group written: not given here.

Columns and labels:
PAR4 = biological target: T1, PAR4 (Homo sapiens, UniProt Q96RI0, A120T); test: phosphoinositide hydrolysis assay in COS cells transiently transfected with PAR4 cDNA; type: cell-based; details: for activity against PAR4 (other proteases): concentration not given; for response of PAR4-transfected COS cells (phosphatidylinositol 4,5 diphosphate hydrolysis): protease at 100 nM
T1 construct: expressed in transfected cells; host or cells: COS-7
T1 sequence (Q96RI0 18-385 A120T): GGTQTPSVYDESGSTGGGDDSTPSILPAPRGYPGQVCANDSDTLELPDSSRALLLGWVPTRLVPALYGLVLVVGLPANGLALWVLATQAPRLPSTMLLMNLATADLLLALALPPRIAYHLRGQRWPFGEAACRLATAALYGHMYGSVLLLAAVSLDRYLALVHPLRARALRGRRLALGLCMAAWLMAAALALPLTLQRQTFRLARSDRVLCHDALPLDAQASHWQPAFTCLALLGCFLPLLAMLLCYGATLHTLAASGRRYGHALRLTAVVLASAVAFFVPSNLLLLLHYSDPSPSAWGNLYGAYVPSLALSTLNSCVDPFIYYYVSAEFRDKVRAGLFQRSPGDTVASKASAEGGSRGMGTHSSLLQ
Procedure: (§1) COS cells were transiently transfected with PAR4 cDNA, and examined for responses to thrombin and trypsin. Briefly, for the phosphoinositide hydrolysis assay, COS-7 cells were grown in Dulbecco's modified Eagle's medium (DMEM; Gibco/BRL, Gaithersburg, Md.) with 10% fetal bovine serum (FBS). Cells were plated at 3.5×10^5/35-mm plate one day before transfection. Two μg of DNA were transfected using 12 μl of lipofectAMINE (Gibco/BRL) for 5 h. The cells were incubated overnight in DMEM with 10% FBS, and then split into triplicate 35-mm wells. Forty-eight hours after transfection, the cells were loaded with 2 μCi/ml [^3H]myo-inositol (Amersham, Arlington Heights, Ill.) in serum-free DMEM and incubated overnight at 37° C. Cells were washed and treated with 20 mM LiCl in DMEM, with or without protease or peptide activators added at various concentrations. Cells were then incubated for 2 h at 37° C. and extracted with 750 μl of 20 mM formic acid for 30 min on ice. The inositol mono-, bis-, and trisphosphates were purified through a one ml AG 1-X8 anion-exchange resin (Bio-Rad, Hercules, Calif.) (T. Nanevicz et al., J. Biol. Chem. 271:702–06, 1996), and quantitated by scintillation counting. In each hydrolysis assay, surface expression levels of receptors were determined in triplicate in parallel cultures.

PAR1 = biological target: T2, PAR1 (Homo sapiens, UniProt P25116); test: thrombin-stimulated phosphoinositide hydrolysis, PAR1 (comparison); type: cell-based; details: comparison with PAR4; read-out: half-maximal concentration (EC50) for PAR1
T2 construct: expressed in transfected cells; COS-7 inferred from the assay of b141
T2 sequence (P25116 22-425): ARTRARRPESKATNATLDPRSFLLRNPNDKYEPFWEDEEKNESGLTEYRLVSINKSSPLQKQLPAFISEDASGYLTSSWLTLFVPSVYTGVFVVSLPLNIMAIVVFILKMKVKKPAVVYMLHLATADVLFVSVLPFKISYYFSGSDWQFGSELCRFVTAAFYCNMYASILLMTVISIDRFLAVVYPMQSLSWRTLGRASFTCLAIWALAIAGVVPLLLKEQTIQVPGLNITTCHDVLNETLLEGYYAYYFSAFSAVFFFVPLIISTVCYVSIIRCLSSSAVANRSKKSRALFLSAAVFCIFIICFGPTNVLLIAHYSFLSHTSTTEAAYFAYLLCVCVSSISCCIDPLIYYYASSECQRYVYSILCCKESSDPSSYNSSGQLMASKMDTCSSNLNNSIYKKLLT
Procedure: For comparative purposes, PAR1 protein was prepared. Briefly, the cDNA coding for PAR1 was isolated from a placental cDNA library by PCR. The PAR1 DNA sequence obtained was essentially identical to that previously reported, except for nucleotides 711–712 (CG→GC) and nucleotides 1091–1092 (CG→GC). […] These amino acid changes were confirmed by sequence analysis of the corresponding regions in the genomic DNA coding for PAR1.
as §1, with “Forty-eight hours after transfection, the cells were loaded with 2 μCi/ml [^3H]myo-inositol (Amersham, Arlington Heights, Ill.) in serum-free DMEM and incubated overnight at 37° C. Cells were washed and treated with 20 mM LiCl in DMEM, with or without protease or peptide activators added at various concentrations. Cells were then incubated for 2 h at 37° C. and extracted with 750 μl of 20 mM formic acid for 30 min on ice.” left out

PAR4 (R47A) = biological target: T3, PAR4 (R47A) (Homo sapiens, UniProt Q96RI0, A120T/R47A); test: phosphoinositide hydrolysis in COS cells expressing cleavage site mutant PAR4 (R47A); type: cell-based; details: Ala for Arg at residue 47
T3 construct: expressed in transfected cells; host or cells: COS cells
T3 sequence (Q96RI0 18-385 R47A/A120T): T1 sequence (Q96RI0 18-385 A120T) with R30A
Procedure: as §1, with “cultures. […]” for “cultures.”

PAR4 (R68A) = biological target: T4, PAR4 (R68A) (Homo sapiens, UniProt Q96RI0, A120T/R68A); test: phosphatidylinositol 4,5 diphosphate hydrolysis assay in COS cells expressing PAR4 mutant R68A; type: cell-based; details: Arg 68 to Ala, extracellular amino-terminal region
T4 construct: expressed in transfected cells; host or cells: COS cells (inferred from the R47A sentence of the same paragraph)
T4 sequence (Q96RI0 18-385 R68A/A120T): T1 sequence (Q96RI0 18-385 A120T) with R51A
Procedure: as §1, with “cultures. […]” for “cultures.”

PAR3 = biological target: T5, PAR3 (Homo sapiens, UniProt O00254); details: comparison with PAR4; read-out: half-maximal concentration (EC50) for PAR3; cited from earlier work
T5 sequence (O00254 22-374): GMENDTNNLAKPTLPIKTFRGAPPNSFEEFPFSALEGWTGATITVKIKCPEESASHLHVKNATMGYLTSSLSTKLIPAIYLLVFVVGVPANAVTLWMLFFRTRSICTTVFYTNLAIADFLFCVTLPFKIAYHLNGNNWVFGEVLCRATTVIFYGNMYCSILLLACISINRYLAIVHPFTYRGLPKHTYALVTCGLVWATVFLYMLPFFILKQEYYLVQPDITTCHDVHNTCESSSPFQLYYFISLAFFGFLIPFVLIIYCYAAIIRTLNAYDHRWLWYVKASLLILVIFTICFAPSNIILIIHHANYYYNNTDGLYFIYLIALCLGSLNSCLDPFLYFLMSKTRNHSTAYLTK

[1] = PAR4-transfected COS cells, read-out: half-maximal concentration (EC50), phosphoinositide hydrolysis with PAR4

- activity against PAR4 (other proteases) (PAR4): failed to activate
Molecule: Chymotrypsin

Molecule: GYPGQV [GYPGQV]
- EC50 (PAR4): ~100000 nM

Molecule: SFLLRN [reference compound]
- activity toward PAR4 of PAR1 activating peptide (PAR4; concentration effective for PAR1 activation): no activity

- activity against PAR4 (other proteases) (PAR4): failed to activate
Molecule: elastase

- EC50 (PAR4; [1]): 5 nM
- response of PAR4-transfected COS cells (phosphatidylinositol 4,5 diphosphate hydrolysis) (PAR4): did respond
- EC50 (PAR1): ~0.2 nM
- effect of R68A mutation on PAR4 activation by protease (PAR4 (R68A)): no effect
Molecule: thrombin
- response of putative cleavage site mutant PAR4 (R47A) to protease (PAR4 (R47A)): failed to respond; also recorded: only activate the wild-type PAR4
- EC50 (PAR3): ~0.2 nM

- EC50 (PAR4; [1]): 5 nM
- response of PAR4-transfected COS cells (phosphatidylinositol 4,5 diphosphate hydrolysis) (PAR4): did respond
- effect of R68A mutation on PAR4 activation by protease (PAR4 (R68A)): no effect
Molecule: trypsin: serine protease, activator of PAR4
- response of putative cleavage site mutant PAR4 (R47A) to protease (PAR4 (R47A)): failed to respond; also recorded: only activate the wild-type PAR4

- activity against PAR4 (other proteases) (PAR4): little or no activity
Molecule: urokinase

- activity against PAR4 (other proteases) (PAR4): little or no activity
B1: plasmin: arginine/lysine-specific serine protease (protein, UniProt P00747 20-580; P00747 581-810, looked up)
Plasmin heavy chain A: EPLDDYVNTQGASLFSVTKKQLGAGSIEECAAKCEEDEEFTCRAFQYHSKEQQCVIMAENRKSSIIIRMRDVVLFEKKVYLSECKTGNGKNYRGTMSKTKNGITCQKWSSTSPHRPRFSPATHPSEGLEENYCRNPDNDPQGPWCYTTDPEKRYDYCDILECEEECMHCSGENYDGKISKTMSGLECQAWDSQSPHAHGYIPSKFPNKNLKKNYCRNPDRELRPWCFTTDPNKRWELCDIPRCTTPPPSSGPTYQCLKGTGENYRGNVAVTVSGHTCQHWSAQTPHTHNRTPENFPCKNLDENYCRNPDGKRAPWCHTTNSQVRWEYCKIPSCDSSPVSTEQLAPTAPPELTPVVQDCYHGDGQSYRGTSSTTTTGKKCQSWSSMTPHRHQKTPENYPNAGLTMNYCRNPDADKGPWCFTTDPSVRWEYCNLKKCSGTEASVVAPPPVVLLPDVETPSEEDCMFGNGKGYRGKRATTVTGTPCQDWAAQEPHRHSIFTPETNPRAGLEKNYCRNPDGDVGGPWCYTTNPRKLYDYCDVPQCAAPSFDCGKPQVEPKKCPGR
Plasmin light chain B: VVGGCVAHPHSWPWQVSLRTRFGMHFCGGTLISPEWVLTAAHCLEKSPRPSSYKVILGAHQEVNLEPHVQEIEVSRLFLEPTRKDIALLKLSSPAVITDKVIPACLPSPNYVVADRTECFITGWGETQGTFGAGLLKEAQLPVIENKVCNRYEFLNGRVQSTELCAGHLAGGTDSCQGDSGGPLVCFEKDKYILQGVTSWGLGCARPNKPGVYVRVSRFVTWIEGVMRNN
modifications: Plasmin
notes: arginine/lysine-specific serine protease
